This note sets out measurements from US6635651B2, “Inhibitors of thrombin induced platelet aggregation” (Parker Hughes Institute, priority 1999, dated 2003).

For orientation: IC50 means the midpoint of a concentration-inhibition curve. A high value points to a need for much substance.

In this assay the test system is thrombin induced platelet aggregation. The experiment in a line: Thrombin induced platelet aggregation (Chronolog aggregometer). It is filed as cell-based. Particulars: 0.1 U/ml thrombin. How it is done:
Platelets treated with 100 μM WHI-P131 or the parent compound, WHI-P258 (negative control), were stimulated with 0.1 U/ml thrombin or 10 μg/ml collagen. WHI-P131 is described above, WHI-P258 is an unsubstituted quinazoline and structurally shown below.
Platelet aggregation with respect to control was monitored in a Chronolog Model 560 Dual Chamber Platelet Aggregometer. […] WHI-P258 had no effect on the thrombin response (FIG. 1C).
Platelets treated with varying concentrations of WHI-P131 or WHI-P258 (negative control) were stimulated with 0.1 U/ml thrombin. Platelet aggregation with respect to control was monitored in a Chronolog Model 560 Dual Chamber Platelet Aggregometer. […] The results are charted in FIG. 2.

For the setting “Platelet, varying concentrations”, `COc1cc2ncnc(Nc3ccc(O)cc3)c2cc1OC` [WHI-P131, 4-(4′-Hydroxyphenyl)-amino-6,7-dimethoxyquinazoline] came in with an IC50 of 1.5 µM. As for `COc1cc2ncnc(Nc3ccccc3)c2cc1OC` [WHI-P258, 4-(phenyl)-amino-6,7-dimethoxyquinazoline], under “100 μM”, the “effect on thrombin induced platelet aggregation” value is reported as “no effect”.
